Reference: ChEMBL document CHEMBL3745701, “Bioactive minor components of the total salvianolic acids injection prepared from Salvia miltiorrhiza Bge” (Bioorg Med Chem Lett, 2016)

Tests used:
[1] = Cytotoxicity against mouse Hepa-1c1c7 cells assessed as cell viability at 10 uM after 24 hrs by crystal violet staining-based assay; details: read-out: Activity
[2] = biological target: NAD(P)H dehydrogenase [quinone] 1 (Mus musculus) (UniProt Q64669); assay: Induction of NQO1 activity in mouse Hepa-1c1c7 cells at 20 uM after 24 hrs by MTT assay relative to control; format: cell-based
Sequence of NAD(P)H dehydrogenase [quinone] 1 (Mus musculus) (Q64669 whole entry): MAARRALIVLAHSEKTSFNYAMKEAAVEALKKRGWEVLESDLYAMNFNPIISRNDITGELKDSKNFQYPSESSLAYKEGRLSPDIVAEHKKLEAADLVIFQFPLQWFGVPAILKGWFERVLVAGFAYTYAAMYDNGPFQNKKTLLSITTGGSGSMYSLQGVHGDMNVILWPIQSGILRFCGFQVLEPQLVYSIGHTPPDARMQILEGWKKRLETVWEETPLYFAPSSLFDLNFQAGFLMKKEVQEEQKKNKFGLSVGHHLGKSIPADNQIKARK

[3] = Antioxidant activity assessed as DPPH radical scavenging activity at 0.5 mM after 30 mins; format: physicochemical; details: 0.5 h, 500 µM
[4] = biological target: NAD(P)H dehydrogenase [quinone] 1 (Mus musculus) (UniProt Q64669); assay: Induction of NQO1 activity in mouse Hepa-1c1c7 cells at 10 uM after 24 hrs by MTT assay relative to control; format: cell-based
[5] = Antioxidant activity assessed as DPPH radical scavenging activity at 0.125 mM after 30 mins; format: physicochemical; details: 0.5 h, 125 µM
[6] = Cytotoxicity against mouse Hepa-1c1c7 cells assessed as cell viability at 20 uM after 24 hrs by crystal violet staining-based assay; details: read-out: Activity
[7] = Antioxidant activity assessed as DPPH radical scavenging activity at 0.05 mM after 30 mins; format: physicochemical; details: 0.5 h, 50 µM
[8] = Antioxidant activity assessed as DPPH radical scavenging activity at 2 mM after 30 mins; format: physicochemical; details: 0.5 h, 2000 µM

Compound	viability at 24 h, 10 µM [1]	fold change (FC) [2]	inhibition (INH) [3]	fold change (FC) [4]	inhibition (INH) [5]	viability at 24 h, 20 µM [6]	inhibition (INH) [7]	inhibition (INH) [8]
O=C(/C=C/c1ccc(O)c2c1[C@@H](C(=O)O[C@@H](Cc1ccc(O)c(O)c1)C(=O)O)[C@H](c1ccc(O)c(O)c1)O2)O[C@@H](Cc1ccc(O)c(O)c1)C(=O)O	97%	1.7	77.1%	1.2	64.9%	82%	42.1%	84.3%
O=c1cc(-c2ccc(Br)cc2)oc2ccccc12	109%	–	–	2.9	–	–	–	–
O=C1O[C@H]([C@@H](O)CO)C(O)=C1O [ASCORBIC ACID]	–	–	58.5%	–	31.8%	–	26%	74.9%
O=C(/C=C/c1ccc(O)c(O)c1/C(=C/c1ccc(O)c(O)c1)C(=O)O[C@@H](Cc1ccc(O)c(O)c1)C(=O)O)O[C@@H](Cc1ccc(O)c(O)c1)C(=O)O	94%	2.6	14.8%	1.4	8.1%	88%	4.4%	53.6%
O=C(/C=C/c1ccc(O)c2c1[C@@H](C(=O)O[C@H](Cc1ccc(O)c(O)c1)C(=O)O)[C@H](c1ccc(O)c(O)c1)O2)O[C@H](Cc1ccc(O)c(O)c1)C(=O)O	85%	1.4	64.1%	1	60.2%	79%	37.6%	84.7%
